Columns and labels:
[1] = test system: second-stage juveniles (J2) of M. incognita; experiment: in vitro bioassay against second-stage juveniles (J2), 48 hours' exposure; type: in vivo; conditions: for % paralyzed namatodes: 0.17 g/L (of each compound in the composition)
Method: FIG. 1—effect of the aqueous crude extracts of seeds of antagonistic plants on (J2) of M. incognita. The bars represent the percentage of live nematodes after 48 hours' exposure. Concentration of 1 mg of each extract for a final volume of 0.3 mL and 100 second-stage juveniles was used in the bioassay in triplicate, having distilled water as negative control. […]
(§1) FIG. 9—(A) Bioassay showing the effect of the commercial compounds on second-stage juveniles of M. incognita after 48 hours' exposure. 1—Control dH20, 2—DECE, 3—Glycose 10%, 4—Glycose 20%, 5—D-Pinitol (80 ug), 6—D-Pinitol (150 ug), 7—L-canavanina (80 ug), 8—L-canavanina (150 ug), 9—palmitic acid (80 ug), 10—palmitic acid (150 ug), 11—citric acid (80 ug), 12—citric acid (150 ug), 13—malic acid (80 ug), 14—malic acid (150 ug), 15—cis-aconitic acid (80 ug), 16—cis-anonitic acid (150 ug), 17—trans-anonitic acid (80 ug), 18—trans-aconitic acid (150 ug), 19—50 mM Tris/HCl pH 8, 20—50 mM acetic acid pH 5, 21—L-phenylamine (80 ug), 22—L-phenylamine (150 ug), 23—L-methionine (80 ug), 24—L-methionine (150 ug), 25—L-tryptophan (80 ug), 26—L-tryptophan (150 ug), 27—S-carboxymethylcistein (80 ug), 28—S-carboxymethylcisteine (150 ug), 29—Zantotoxine (80 ug), 30—Zantotoxine (150 ug), and 31—Glucose 20%+L-canavanine (15)ug). B—Evaluation of the effect of the different commercial compounds after the recovery assay using distilled water.
FIG. 10—(A) Bioassay showing the effect of the commercial compounds and their compositions on second-stage juveniles of M. incognita […] after 48 hours' exposure. C+ positive control (extract); C—: negative control (water); 2: palmitic acid; 3: S-carboxymethylcisteine; 4: trans-aconitic acid; 5: glucose. […] (B)—Evaluation of the effect of the different commercial compounds and their compositions after the recovery assay using distilled water. C+ positive control (extract); 2: palmitic acid; 3: s-carboxymethylcisteine; 4: trans-aconitic acid; 5: glucose.

J2 of M. incognita = experiment: recovery assay using distilled water, certifying nematicidal or nematostatic effect; type: in vivo
Method: as §1
FIG. 10—(A) Bioassay showing the effect of the commercial compounds and their compositions on second-stage juveniles of M. incognita […] after 48 hours' exposure. C+ positive control (extract); C—: negative control (water); 2: palmitic acid; 3: S-carboxymethylcisteine; 4: trans-aconitic acid; 5: glucose. Concentrations of the compositions: 3+4, 3+5=0.25 g/L (each active compound of the composition); 3+4+5=0.17 g/L each active compound of the composition. (B)—Evaluation of the effect of the different commercial compounds and their compositions after the recovery assay using distilled water. C+ positive control (extract); 2: palmitic acid; 3: s-carboxymethylcisteine; 4: trans-aconitic acid; 5: glucose. Concentrations of the compositions: 3+4, 3+5, 4+5=0.25 g/L (each active compound of the composition); 3+4+5=0.17 g/L each active compound of the composition.

Row | Compound | J2 paralyzed ([1]; 80 μg/300 μL) | J2 paralyzed ([1]; 150 μg/300 μL) | nematicidal activity after the recovery assay (J2 of M. incognita; 150 μg/300 μL) | further results
1 | CO[C@H]1[C@H](O)[C@@H](O)[C@@H](O)[C@H](O)[C@@H]1O [D-pinitol] | did not exhibit any toxic effect | did not exhibit any toxic effect | – | –
2 | N=C(N)NOCC[C@H](N)C(=O)O [L-canavanine] | did not exhibit any nematotoxic activity | – | – | juveniles remaining paralyzed after the recovery assay (nematicidal activity) (J2 of M. incognita; 105 μg/300 μL): 25%
3 | N[C@@H](Cc1ccccc1)C(=O)O [L-phenylamnine] | not capable of affecting the J2 | not capable of affecting the J2 | – | –
4 | N[C@@H](Cc1c[nH]c2ccccc12)C(=O)O [L-triptofane] | not capable of affecting the J2 | not capable of affecting the J2 | – | –
5 | COc1c2occc2cc2ccc(=O)oc12 [Xantotoxin] | 87% | 87% | – | J2 recovering the mobility after the recovery test (J2 of M. incognita; 80 μg/300 μL): did not recover the mobility; J2 recovering the mobility after the recovery test (J2 of M. incognita; 150 μg/300 μL): did not recover the mobility
6 | O=C(O)/C=C(/CC(=O)O)C(=O)O [cis-aconitic acid] | very low percentage | – | 40% | –
7 | O=C(O)CC(O)(CC(=O)O)C(=O)O [citric acid] | very low percentage | – | 25% | –
8 | O=C(O)CC(O)C(=O)O (stereo not drawn) [malic acid] | very low percentage | – | 18% | –
9 | CCCCCCCCCCCCCCCC(=O)O [palmitic acid] | 98% | – | – | J2 recovering the mobility after the recovery test (J2 of M. incognita; 80 μg/300 μL): 90%; J2 recovering the mobility after the recovery test (J2 of M. incognita; 150 μg/300 μL): 90%
10 | O=C(O)/C=C(\CC(=O)O)C(=O)O [trans-aconitic acid] | 90% | – | 98% | % paralyzed namatodes [1]: 11.12%; % of paralyzed nematodes ([1]; 0.25 g/L (of each compound in the composition)): 27.08%
11 | S-carboxymethylcisteine | about 90% | about 90% | – | % paralyzed namatodes [1]: 43.03%; J2 recovering the mobility after the recovery test (J2 of M. incognita; 80 μg/300 μL): most J2 recovering the movement; J2 recovering the mobility after the recovery test (J2 of M. incognita; 150 μg/300 μL): most J2 recovering the movement

Source: US10687529B2, “Nematotoxic composition of synergistic effect, use of a nematotoxic composition of synergistic effect” (EMPRESA BRASILEIRA DE PESQUISA AGROPECUARIA-EMBRAPA, priority 2012, dated 2020)
